From US8481540B2, “Inhibitors of bruton's tyrosine kinase” (Hoffmann-La Roche Inc., priority 2010, dated 2013)

System: B cells in human blood
Assay: Inhibition of B cell activation in whole blood measured by CD69 expression
Format: cell-based
Conditions: CD69-positive, CD20-positive cells after anti-IgM stimulation, human whole blood, 20 hours, read-out: Human Whole Blood
Experimental: Inhibition of B Cell Activation in Whole Blood Measured by CD69 Expression
A procedure to test the ability of Btk inhibitors to suppress B cell receptor-mediated activation of B cells in human blood is as follows:
Human whole blood (HWB) is obtained from healthy volunteers, with the following restrictions: 24 hr drug-free, non-smokers. Blood is collected by venipuncture into Vacutainer tubes anticoagulated with sodium heparin. Test compounds are diluted to […] the desired starting drug concentration in PBS (20×), followed by three-fold serial dilutions in 10% DMSO in PBS to produce a nine point dose-response curve. 5.5 μl of each compound dilution is added in duplicate to a 2 ml96-well V bottom plate (Analytical Sales and Services, #59623-23); 5.5 μl of 10% DMSO in PBS is added to control and no-stimulus wells. HWB (100 μl) is added to each well, and after mixing the plates are incubated at 37 C, 5% CO2, 100% humidity for 30 minutes. Goat F(ab′)2 anti-human IgM (Southern Biotech, #2022-14) (10 μl of a […] solution, 50 μg/ml final concentration) is added to each well (except the no-stimulus wells) with mixing and the plates are incubated for an additional 20 hours.
At the end of the 20 hour incubation, samples are incubated with florescent-probe-labeled anti-bodies (15 μl PE Mouse anti-Human CD20, BD Pharmingen, #555623, and/or 20 ul APC Mouse anti-Human CD69, BD Pharmingen #555533) for 30 minutes, at 37 C, 5% CO2, 100% humidity. Included are induced control, unstained and single stains for compensation adjustments and initial voltage settings. Samples are then lysed with 1 ml of 1× Pharmingen Lyse Buffer (BD Pharmingen #555899), and plates are centrifuged at 1800 rpm for 5 minutes. Supernatants are removed via suction and the remaining pellets are lysed again with another 1 ml of 1× Pharmingen Lyse Buffer, and plates are spun down as before. Supernatants are aspirated and remaining pellets are washed in FACs buffer (PBS+1% FBS). After a final spin, the supernantants are removed and pellets are resuspended in 180 μl of FACs buffer. Samples are transferred to a 96 well plate suitable to be run on the HTS 96 well system on the BD LSR II flow cytometer.
Using appropriate excitation and emission wavelengths for the fluorophores used, data are acquired and percent positive cell values are obtained using Cell Quest Software. Results are initially analyzed by FACS analysis software (Flow Jo). […] The IC50 values are calculated using XLfit software version 3, equation 201.
Representative compound data for this assay are listed below in Table II.

With `Cn1nc(-c2cccc(-n3ncc4cc(C(C)(C)C)cc(F)c4c3=O)c2CO)cc(Nc2ccc(C(=O)N3CCC(C)(O)CC3)cn2)c1=O` [I-21, 6-tert-butyl-8-fluoro-2-(2-hydroxymethyl-3-{5-[5-(4-hydroxy-4-methyl-piperidine-1-carbonyl)-pyridin-2-ylamino]-1-methyl-6-oxo-1,6-dihydro-pyridazin-3-yl}-phenyl)-2H-phthalazin-1-one] as the compound, how does the IC50 read?
The IC50 was 109 nM.

Which IC50 does the source give for `CC(C)N1CCC(c2ccc(Nc3cc(-c4cccc(-n5ncc6cc(C(C)(C)C)cc(F)c6c5=O)c4CO)nn(C)c3=O)nc2)CC1` [I-29, 6-tert-Butyl-8-fluoro-2-{2-hydroxymethyl-3-[5-(1′-isopropyl-1′,2′,3′,4′,5′,6′-hexahydro-[3,4′]bipyridinyl-6-ylamino)-1-methyl-6-oxo-1,6-dihydro-pyridazin-3-yl]-phenyl}-2H-phthalazin-1-one] here?
The IC50 was 15 nM.

`Cn1nc(-c2cccc(-n3ccc4cc(C(C)(C)C#N)cc(F)c4c3=O)c2CO)cc(Nc2ccc(C(=O)N3CCOCC3)cn2)c1=O` [I-15, 2-[8-fluoro-2-(2-hydroxymethyl-3-{1-methyl-5-[5-(morpholine-4-carbonyl)-pyridin-2-ylamino]-6-oxo-1,6-dihydro-pyridazin-3-yl}-phenyl)-1-oxo-1,2-dihydro-isoquinolin-6-yl]-2-methyl-propionitrile] was tested. Which IC50 did it give?
Its IC50 is 163 nM.

How did the IC50 turn out when `CN1CCC[C@@H]1c1ccc(Nc2cc(-c3cccc(-n4ncc5cc(C(C)(C)C)cc(F)c5c4=O)c3CO)nn(C)c2=O)nc1` [I-19, 6-tert-Butyl-8-fluoro-2-(2-hydroxymethyl-3-{1-methyl-5-[5-((R)-1-methyl-pyrrolidin-2-yl)-pyridin-2-ylamino]-6-oxo-1,6-dihydro-pyridazin-3-yl}-phenyl)-2H-phthalazin-1-one] was run?
Its IC50 is 7 nM.

How did the IC50 turn out when `CC(C)S(=O)(=O)c1ccc(Nc2cc(-c3cccc(-n4ncc5cc(C(C)(C)C)cc(F)c5c4=O)c3CO)nn(C)c2=O)nc1` [I-24, 6-tert-Butyl-8-fluoro-2-(2-hydroxymethyl-3-{1-methyl-6-oxo-5-[5-(propane-2-sulfonyl)-pyridin-2-ylamino]-1,6-dihydro-pyridazin-3-yl}-phenyl)-2H-phthalazin-1-one] was run?
The IC50 was 116 nM.

With `Cn1nc(-c2cccc(-n3ccc4cc(C(C)(C)CF)cc(F)c4c3=O)c2CO)cc(Nc2ccc(C(=O)N3CCOCC3)cn2)c1=O` [I-87, 8-Fluoro-6-(2-fluoro-1,1-dimethyl-ethyl)-2-(2-hydroxymethyl-3-{1-methyl-5-[5-(morpholine-4-carbonyl)-pyridin-2-ylamino]-6-oxo-1,6-dihydro-pyridazin-3-yl}-phenyl)-2H-isoquinolin-1-one] as the compound, how does the IC50 read?
The IC50 was 455 nM.

Which IC50 does the source give for `CCN1CCn2nc(Nc3cc(-c4cccc(-n5ccc6cc(C(C)(C)C#N)cc(F)c6c5=O)c4CO)nn(C)c3=O)cc2C1` [I-83, 2-(2-{3-[5-(5-Ethyl-4,5,6,7-tetrahydro-pyrazolo[1,5-a]pyrazin-2-ylamino)-1-methyl-6-oxo-1,6-dihydro-pyridazin-3-yl]-2-hydroxymethyl-phenyl}-8-fluoro-1-oxo-1,2-dihydro-isoquinolin-6-yl)-2-methyl-propionitrile] here?
Its IC50 is 70 nM.

`CN1C[C@@H]2C[C@H]1CN2c1cnc(Nc2cc(-c3cccc(-n4ncc5cc(C(C)(C)C)cc(F)c5c4=O)c3CO)nn(C)c2=O)cn1` [I-88, 6-tert-Butyl-8-fluoro-2-(2-hydroxymethyl-3-{1-methyl-5-[5((1S,4S)-5-methyl-2,5-diaza-bicyclo[2.2.1]hept-2-yl)-pyrazin-2-ylamino]-6-oxo-1,6-dihydro-pyridazin-3-yl}-phenyl)-2H-phthalazin-1-one] was tested. Which IC50 did it give?
Its IC50 is 203 nM.

For `CCN1CCn2nc(Nc3cc(-c4cccc(-n5ncc6cc(C(C)(C)C)cc(F)c6c5=O)c4CO)nn(C)c3=O)cc2C1` [I-82, 6-tert-Butyl-2-{3-[5-(5-ethyl-4,5,6,7-tetrahydro-pyrazolo[1,5-a]pyrazin-2-ylamino)-1-methyl-6-oxo-1,6-dihydro-pyridazin-3-yl]-2-hydroxymethyl-phenyl}-8-fluoro-2H-phthalazin-1-one], which IC50 is on record?
The IC50 was 17 nM.
